# Laboratory results as given in patent US7939546B2, “Quinoline derivatives for modulating DNA methylation” (SuperGen, Inc., priority 2007, dated 2011).
# Where two headings read alike, the source gives them in different places.
# Assays:
# [1] = test system: CMV-EE210 cell line containing the epigenetically silenced GFP transgene; assay: Cell-based GFP assay for demethylating activity (reactivation of silenced GFP transgene); settings: for IC50: read-out: GFP IC50; for GFP Expression Level: test compound 30-50 μM, decitabine at 11 M (so in the source), three days
# Protocol: (§1) The demethylating activity of non-bis-quaternary 4-anilinoquinolines were tested in a cell-based GFP (green fluorescent protein) assay. This assay has a GFP gene regulated by the CMV promoter and is sensitive to the methylation of CpG sites within the promoter. A decrease in methylation resulting from exposure to a methylation inhibitor leads to GFP expression and is readily scored. Specifically, the CMV-EE210 cell line containing the epigenetically silenced GFP transgene was used to assay for reactivation of GFP expression by flow cytometry. CMV-EE210 was made by transfecting NIH 3T3 cells with the pTR-UF/UF1/UF2 plasmid (Zolotuhin et al., 1996), which is comprised of pBS(+) (Stratagene, Inc.) containing a cytomegalovirus (CMV) promoter driving a humanized GFP gene adapted for expression in mammalian cells. After transfection, high-level GFP expressing cells were initially selected by FACS analysis and sorting using a MoFlo cytometer (Cytomation, Inc.). […] To screen for reactivation of CMV-EE210, decitabine (at […]) or a test compound (at a concentration of 30-50 μM) was added to complete medium (phenol red free DMEM (Gibco, Life Technologies) supplemented with 10% fetal bovine serum (Hyclone)). Cells were then seeded to 30% confluence (˜5000 cell/well) in 96 well plate containing the test compounds and grown for three days in at 37° C. in 5% CO2. The plates were examined under a fluorescent microscope using a 450-490 excitation filter (13 filter cube, Leica, Deerfield Ill.). Wells were scored g1 positive if 10% of viable cells express GFP, g2 positive if 30% of viable cells express GFP and g3 if greater than 75% of the viable cells express GFP. GFP IC 50 is the concentration of an inhibitor that (like an IC50) is the dose at which the GFP expression level goes from g3 to g1/2.
# DNMT1 [2] = molecular target: T1, DNMT1 (Homo sapiens, UniProt P26358); assay: Selective depletion of DNMT1 by Western blot in treated HCT116 cells; assay type: cell-based; set-up: Protein extracts (equivalent to 100 μg) were isolated from HCT116 cells; endogenous in cells; host or cells: HCT116; settings: for % DNMT1 protein level remaining at 5 µM: HCT-116, 5 μM; for % DNMT1 protein level remaining at 10 µM: HCT-116, 10 μM; for % DNMT1 protein level remaining at 100 µM: HCT-116, 100 μM
# Excerpt: Biol. 2005, 11, 4727-41.]. For DNMT1, commercially available antibodies from Santa Cruz or New England Biolabs were used.
# Target sequence in this assay (P26358 whole entry): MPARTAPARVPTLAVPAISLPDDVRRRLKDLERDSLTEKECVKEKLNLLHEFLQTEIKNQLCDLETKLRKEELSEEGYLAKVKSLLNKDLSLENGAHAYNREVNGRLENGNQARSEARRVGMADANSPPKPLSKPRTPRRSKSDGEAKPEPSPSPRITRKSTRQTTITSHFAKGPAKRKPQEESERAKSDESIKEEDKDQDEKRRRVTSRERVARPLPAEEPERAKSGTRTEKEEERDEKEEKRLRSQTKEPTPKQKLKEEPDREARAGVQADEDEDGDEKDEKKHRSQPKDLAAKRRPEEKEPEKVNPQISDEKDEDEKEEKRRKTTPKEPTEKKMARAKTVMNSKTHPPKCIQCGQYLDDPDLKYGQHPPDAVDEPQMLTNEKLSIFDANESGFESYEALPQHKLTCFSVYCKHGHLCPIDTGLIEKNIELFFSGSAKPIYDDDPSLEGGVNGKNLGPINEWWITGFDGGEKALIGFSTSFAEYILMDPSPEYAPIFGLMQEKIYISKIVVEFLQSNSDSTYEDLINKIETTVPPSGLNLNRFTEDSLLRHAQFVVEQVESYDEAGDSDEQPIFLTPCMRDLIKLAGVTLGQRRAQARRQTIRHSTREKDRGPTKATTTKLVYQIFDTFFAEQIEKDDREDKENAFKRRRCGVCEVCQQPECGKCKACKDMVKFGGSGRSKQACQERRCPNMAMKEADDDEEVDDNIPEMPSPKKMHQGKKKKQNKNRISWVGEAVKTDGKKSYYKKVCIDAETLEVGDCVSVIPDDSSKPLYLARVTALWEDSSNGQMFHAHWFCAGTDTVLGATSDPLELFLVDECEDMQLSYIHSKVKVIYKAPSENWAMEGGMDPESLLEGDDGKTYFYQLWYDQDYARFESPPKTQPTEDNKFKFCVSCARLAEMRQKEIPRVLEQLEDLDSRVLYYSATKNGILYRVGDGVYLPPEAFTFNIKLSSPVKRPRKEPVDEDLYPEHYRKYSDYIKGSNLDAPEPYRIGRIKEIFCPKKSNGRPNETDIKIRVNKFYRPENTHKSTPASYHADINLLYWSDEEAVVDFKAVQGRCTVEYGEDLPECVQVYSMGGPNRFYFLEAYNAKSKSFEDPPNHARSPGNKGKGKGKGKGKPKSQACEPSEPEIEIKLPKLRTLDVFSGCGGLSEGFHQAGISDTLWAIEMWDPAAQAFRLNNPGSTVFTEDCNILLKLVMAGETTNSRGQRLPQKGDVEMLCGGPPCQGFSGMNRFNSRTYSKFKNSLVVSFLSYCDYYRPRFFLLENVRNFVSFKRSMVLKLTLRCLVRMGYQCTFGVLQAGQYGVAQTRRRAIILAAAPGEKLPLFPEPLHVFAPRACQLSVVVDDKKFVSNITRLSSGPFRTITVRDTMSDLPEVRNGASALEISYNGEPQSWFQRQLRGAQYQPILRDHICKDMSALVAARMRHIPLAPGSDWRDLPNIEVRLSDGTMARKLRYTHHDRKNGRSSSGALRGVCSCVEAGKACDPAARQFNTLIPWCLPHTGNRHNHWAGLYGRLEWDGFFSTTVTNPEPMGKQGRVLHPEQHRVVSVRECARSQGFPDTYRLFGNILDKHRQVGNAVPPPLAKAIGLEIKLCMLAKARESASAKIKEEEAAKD
# CMV-EE210 cell line = assay: Toxicity (TD50, cell viability) reported with the GFP assay; settings: for TD50: Dose at which cells are >50% viable
# Protocol: as §1
# DNMT1 [3] = molecular target: T1, DNMT1; assay: DNMT1 Inhibition Assay (Epigentek DNMT1 Activity/Inhibition kit); assay type: biochemical; settings: 100 μM SAM, 2.2 μg/ml DNMT1 enzyme
# Protocol: The DNMT1 Activity/Inhibition kit from Epigentek Inc. (Brooklyn, N.Y.) was used in this experiment (Catalog No. P-3006). In general terms, this assay utilizes an active DNMT1 enzyme incubated with S-adenosylmethionine (SAM) in 96-well plates upon which unmethylated DNA has been immobilized onto the surface of each well. After incubation the reaction wells are washed and probed with a primary anti-methylcytosine antibody, which will bind to methylated DNA. A secondary antibody is then used to detect the primary antibody and creates a signal that is proportional to the amount of methylated DNA in the well. Uninhibited DNMT1 produces a well with high levels of methylated DNA (high signal), whereas inhibited DNMT1 produces a well with low levels of methylation (low signal). The final concentrations of reagents used in this DNMT1 assay were as follows: 100 μM SAM and 2.2 μg/ml DNMT1 enzyme, with inhibitor concentrations typically ranging from 100 μM to 0.781 μM.
# More specifically, test compounds were resuspended in 100% DMSO at 3 mM and serially diluted 1:2 in DMSO 8 times. A volume of 100 μl of 1× assay buffer was combined with 12 μl of 1 mM SAM solution and 4 μl of 66.7 μg/mL DNMT1 enzyme in the presence of 4 μl of test compound diluted in DMSO. Controls include enzyme only (no inhibitor, but containing 3.3% DMSO), no enzyme, and compounds having inhibitory activity. A volume of 30 μl of the mixed solution was then added to the substrate-coated wells in triplicate and incubated at 37° C. for 2 hours. Reaction wells are then washed 3× with 150 μl of DNMT wash buffer. The primary antibody (anti-methylcytosine) was diluted 1:1000 in wash buffer, added to each well (50 μl) and incubated at room temperature for 1 hour. Reaction wells were washed again. The secondary antibody was diluted 1:1000 in wash buffer, added to each well (50 μl) and incubated at room temperature for 30 min. The wells were washed for the last time. […] The stop solution was added (50 μl) and the plate was immediately read on a plate reader at 450 nm absorbance. […]
# Target sequence in this assay (P26358 whole entry, species assumed): as the sequence (P26358 whole entry) above
# [4] = dose at which the GFP expression level goes from g3 to g1/2
IC50 (DNMT1 [3]),Compound,"IC50 [1, 4]",% DNMT1 protein level remaining at 5 µM (DNMT1 [2]),% DNMT1 protein level remaining at 10 µM (DNMT1 [2]),% DNMT1 protein level remaining at 100 µM (DNMT1 [2]),melting point,toxicity relative to decitabine (CMV-EE210 cell line),TD50 (CMV-EE210 cell line),IC50 [1],GFP Expression Level [1],% DNMT1 Level (DNMT1 [2]; 5 μM),% DNMT1 Level (DNMT1 [2]; 10 μM),% DNMT1 Level (DNMT1 [2]; 100 μM)
–,"Cc1cc(Nc2ccc(NC(=O)c3ccc(Nc4ccnc5ccc(N(C)C)cc45)cc3)cc2)nc(N)n1.Cl [Cpd. P, N-[4-(2-amino-6-methylpyrimidin-4-ylamino)phenyl]-4-(6-(dimethylamino)quinolin-4-ylamino)benzamide hydrochloride]",50 µM,57%,91%,11%,260 to 265 °C,less than one-half as toxic as decitabine,25 µM,–,–,–,–,–
–,"CN(C)c1ccc2nccc(Nc3ccc(C(=O)Nc4cccc(Nc5cc[n+](C)cc5)c4)cc3)c2c1 [Cpd. Q, 6-(dimethylamino)-4-[4-({3-[(1-methyl-4-pyridiniumyl)amino]anilino}carbonyl)anilino]quinolinium dichloride]",–,219%,93%,10%,> 300 °C,less than one-half as toxic as decitabine,25 µM,12.5 µM,–,–,–,–
5.5 µM,"O=C(Nc1ccc(SC2CCNC2)cc1)c1ccc(Nc2ccnc3ccccc23)cc1 (centres unmarked) [Cpd. EEE, 3-(4-(4-(quinolin-4-ylamino)benzamido)phenylthio)pyrrolidine]",–,–,–,–,–,–,–,–,–,–,–,–
–,"C[n+]1ccc(Nc2ccc(NC(=O)c3ccc(Nc4ccnc5ccc(N)cc45)cc3)cc2)cc1 [Cpd. L, 4-[4-({4-[(6-ammonio-4-quinolinyl)amino]benzoyl}amino)anilino]-1-methylpyridinium dichloride]",–,144%,145%,128%,262 to 266 °C,–,50 µM,50 µM,g2 (g2 positive if 30% of viable cells express GFP),–,–,–
0.31 µM,"O=C(Nc1ccc(SC2CCCNC2)cc1)c1ccc(Nc2ccnc3ccccc23)cc1 (centres unmarked) [Cpd. GGG, N-(4-(piperidin-3-ylthio)phenyl)-4-(quinolin-4-ylamino)-benzamide]",–,–,–,–,–,–,–,–,–,–,–,–
–,"C[n+]1ccc(Nc2ccc(C(=O)Nc3ccc(Nc4ccnc5cc(N)ccc45)cc3)cc2)cc1 [Cpd. Y, 4-[4-({4-[(7-amino-4-quinolinyl)amino]anilino}carbonyl)anilino]-1-methylpyridinium chloride]",–,93%,63%,77%,–,–,25 µM,100 µM,g1 (g1 positive if 10% of viable cells express GFP),–,–,–
–,"CN(C)c1ccc2nccc(Nc3ccc(C(=O)Nc4ccc(Nc5cc[n+](C)cc5)cc4)cc3)c2c1 [Cpd. O, 4-[4-({4-[(6-dimethylammonio-4-quinolinyl)amino]benzoyl}amino)-anilino]-1-methylpyridinium dichloride]",–,84%,150%,142%,242 to 246 °C,less than one-half as toxic as decitabine,50 µM,12.5 µM,–,–,–,–
–,"C[n+]1ccc(Nc2cccc(C(=O)Nc3ccc(Nc4ccnc5cc(N)ccc45)cc3)c2)cc1.Cl.[Cl-] [Cpd. X, 7-amino-4-[4-({3-[(1-methyl-4-pyridiniumyl)amino]benzoyl}amino)anilino]quinolinium dichloride]",50 µM,–,–,–,–,–,25 µM,–,g2 (g2 positive if 30% of viable cells express GFP),49%,98%,73%
–,"C[n+]1ccc(Nc2ccc(C(=O)Nc3ccc(Nc4ccnc5ccc(N)cc45)cc3)cc2)cc1 [Cpd. N, 4-[4-({4-[(6-amino-4-quinolinyl)amino]anilino}carbonyl)anilino]-1-methylpyridinium chloride]",–,160%,152%,130%,–,–,50 µM,100 µM,g2 (g2 positive if 30% of viable cells express GFP),–,–,–
–,"CN(C)c1ccc2c(Nc3ccc(NC(=O)c4cccc(Nc5cc[n+](C)cc5)c4)cc3)ccnc2c1 [Cpd. CC, 7-(dimethylamino)-4-[4-({3-[(1-methyl-4-pyridiniumyl)amino]benzoyl}amino)aniline]quinolinium dichloride]",–,65%,81%,26%,188 °C (dec.),less than one-half as toxic as decitabine,25 µM,6 µM,–,–,–,–
1.6 µM,"O=C(Nc1ccc(SC2CNC(C(=O)O)C2)cc1)c1ccc(Nc2ccnc3ccccc23)cc1 (centres unmarked) [Cpd. DDD, 4-(4-(4-(quinolin-4-ylamino)benzamido)phenylthio)pyrrolidine-2-carboxylic acid]",–,–,–,–,–,–,–,–,–,–,–,–
–,"CN(C)c1ccc2c(Nc3ccc(C(=O)Nc4cccc(Nc5cc[n+](C)cc5)c4)cc3)ccnc2c1.Cl.[Cl-] [Cpd. Z, 7-(dimethylamino)-4-[4-({3-[(1-methyl-4-pyridiniumyl)amino]anilino}carbonyl)anilino]quinolinium dichloride]",1 µM,–,–,–,–,less than one-half as toxic as decitabine,25 µM,–,–,83%,115%,87%
